Bounds are passed on as bounds.

The subject of one assay is H. pylori. The experiment in a line: Survival / MBC of H. pylori in standard incubations (40 min, 37° C., pH 7.4). The note with it: for effect on H. pylori viability of each ingredient by itself at low concentration: 0.3 mM FA C12:0, 0.05% Tween 20, 200 μg/ml lansoprazole, each alone. In kind it is cell-based, Helicobacter pylori. Here is the method: FIG. 1 The survival of H. pylori in the presence of: FA C12:0 only (▴); FA C12:0 plus 100 μg/mL lansoprazole ([…]); FA C12:0 plus 200 μg/mL lansoprazole (▪); FA C12:0 plus 300 μg/mL lansoprazole (▾); FA C12:0 plus 400 μg/mL lansoprazole (♦); FA C12:0 plus 0.05% (w/w) Tween 20 (Δ); FA C12:0 plus 100 μg/mL lansoprazole plus 0.05% (w/w) Tween 20 (◯); FA C12:0 plus 200 μg/mL lansoprazole plus 0.05% (w/w) Tween 20 (□). Cells were incubated at pH 7.4 for 40 min at 37° C.
FIG. 2 The effect of lansoprazole on the survival of H. pylori in the presence of 0.05% Tween 20 (▴), and in its absence (Δ). Cells were incubated at pH 7.4 for 40 min at 37° C.
FIG. 4 The effect of monolaurin (MG C12) on survival of H. pylori in the absence (squares) and presence (diamonds) of Tween 80 (0.4%, w/v), after 40 min exposure at 37° C. and initial pH 7.4.
These can be selected from any one or more of capric acid, lauric acid, myristic acid, myristoleic acid, palmitoleic acid, linolenic acid, monolaurin or monomyristin for example. This list is not intended to be limiting. Reference can also be made to Table 1 of Sun et al FEMS Immun. Med. Microbiol. 36, 9-17, 2003 (the disclosure of which is included herein by way of reference). The MBC is the minimum concentration of agent(s) that result(s) in a 5 log units decrease in viable cell numbers.
The effects of combinations of lansoprazole (0-400 μg/mL), 0.05% Tween 20, and FA C12:0 (0.1-1.0 mM) on the viability of H. pylori were examined in standard incubations. The results are shown in FIG. 1, and the MBCs for FA C12:0, with different combinations of lansoprazole and Tween 20, are summarised in Table 1.
Experiments to Examine Possible Interactions Between Monolaurin (MG C12) and Tween 80. The concentration profile of monolaurin on the survival of H. pylori was tested in the presence and absence of 0.4% (w/v) Tween 80, and the results are shown in FIG. 4. MG C12 on its own, has little effect in the range 0-0.3 mM. However in the range 0.3-0.5 mM MG C12 there is a sharp increase in bactericidal potency, and the killing increased by >5 log units (FIG. 4, squares).

In assay [1] the test system is Helicobacter pylori in mucus. The experiment in a line: In vitro mucus/H. pylori test chamber model: survival of H. pylori in pig gastric mucus. In kind it is cell-based, Helicobacter pylori (NCTC 11637). The text has this: FIG. 3 Diagram of apparatus used to model the mucus layer in digestive tract. This test chamber was designed as an in vitro model to investigate the barrier effect of mucus in protecting H. pylori from agents present in the lumen of the stomach. […] The mucus layer (C2), contains H. pylori, with numbers of colony forming units as specified. It is held as a 1 mm thick disc between the test chamber base (B and C4) and a stainless steel mesh (A and C1). This was then inserted into a Falcon tube containing broth (D). • A. Screw top lid with a recessed top containing a stainless steel grid. • B. Base with recessed well 1 mm deep×10 mm diameter that contains mucus (shaded area—see C2) • C. Cross sectional view of chamber (A & B). 1—stainless steel mesh, 2=mucus, 3=screw top lid, 4=base • D. Chamber in a Falcon tube covered with Iso-sensitest broth (with or without additives). An H. pylori (NCTC 11637) culture was mixed with pig gastric mucus for 40 min, and then H. pylori colonies were re-isolated by dilution and plating. The re-isolated strain was used in the experiments below. PCR of the 16S rDNA piece and sequencing was used to confirm that the re-isolated bacterial strain was H. pylori. H. pylori was grown by plating on Columbia agar (Oxoid) with 5% horse serum (Fort Richard) at 37° C. for 48 h under microaerophilic conditions (80% nitrogen, 15% carbon dioxide, 5% oxygen). Two loops of 48 h agar plate culture were inoculated into pre-warmed (37° C.) Iso-sensitest broth (Oxoid) containing 5% horse serum and incubated for 24 h under microaerophilic conditions. This 24 h H. pylori broth culture (500 μL) was added to 3.5 g of thawed pre-warmed pig gastric mucus (previously frozen at −20° C.) and mixed. […] Final concentrations of surviving H. pylori colony forming units (cfu) were calculated per gram of mucus. […] Abbreviations used are: FA=0.1 or 0.2 mM lauric acid; TW=0.05% Tween 20; OM=0.58 mM omeprazole; NAC=0.245 M N-acetylcysteine. • (a) Calculated H. pylori cfu's initially added per gram of mucus. […]

As for `Cc1c(OCC(F)(F)F)ccnc1C[S+]([O-])c1nc2ccccc2[nH]1` (centres unmarked) [lansoprazole, reference compound], in the assay with H. pylori, the “effect on H. pylori viability of each ingredient by itself at low concentration” value was “no effect”. The “effect of lansoprazole by itself on H. pylori in vitro” value in the assay on H. pylori (concentrations below 400 μg/mL, Midolo et al observation, confirmed by FIG. 2 (pH 7.4, 40 min, 37° C.)) was “little effect”.
Consider `CCCCCCCCCCCC(=O)OCC(O)CO` (centres unmarked) [MG C12, monolaurin], for which the “killing of H. pylori” value with H. pylori (0.5 mM monolaurin in the absence of Tween 80, 40 min, 37° C., initial pH 7.4) is greater than 5 logs; in the assay with H. pylori (0.5 mM monolaurin with 0.4% Tween 80 present, 40 min, 37° C., initial pH 7.4), 3 logs. The “effect of MG C12 on its own on survival of H. pylori” value in the assay with H. pylori (range 0-0.3 mM MG C12, no Tween 80, 40 min, 37° C., initial pH 7.4) is given as “little effect”. Also, the “increase in killing of H. pylori” value with H. pylori (range 0.3-0.5 mM MG C12 on its own, 40 min, 37° C., initial pH 7.4) was greater than 5 log units.
In the case of `CCCCCCCCCCCC(=O)O` [FA C12:0, lauric acid], the “effect on H. pylori viability of each ingredient by itself at low concentration” value with H. pylori is reported as “no effect”. The MBC in the assay on H. pylori (Helicobacter pylori, 40 min, MBC of FA C12:0 in medium with the stated additions, 40 min incubation with H. pylori at 37° C. and pH 7.4, MBC = concentration giving 5 log units decrease in viable cells, read-out: MBC (minimal bactericidal concentration of FA C12:0)) stood at 1000 µM. Further, the “effect of FA on its own on H. pylori survival in mucus” value in assay [1] (0.1 mM FA experiment) is “minimal effect”. Also, the “H. pylori numbers (cfu per g mucus) using 0.1 mM FA” value in assay [1] (0.1 mM lauric acid, TW=0.05% Tween 20, OM=0.58 mM omeprazole, NAC=0.245 M N-acetylcysteine, 40 min, 37° C., pH 7.0, broth-alone control 1.29 × 10^6) is reported as 1.85 × 10^5 cfu per g mucus. In assay [1] (0.2 mM lauric acid, TW=0.05% Tween 20, OM=0.58 mM omeprazole, NAC=0.245 M N-acetylcysteine, 40 min, 37° C., pH 7.0, broth-alone control 2.64 × 10^4), the “H. pylori numbers (cfu per g mucus) using 0.2 mM FA” value is recorded as 2.59 × 10^4 cfu per g mucus.

The record behind these values is US20080214618A1, “Gastric Therapies Amd Compositions Therefor” (Auckland Uniservices Limited, priority 2004, published 2008).
